Experimental data from patent US20080286254A1, “Composition comprising licorice polyphenol” (Kaneka Corporation, priority 2007, published 2008).

Tested on: 3T3-L1 cells
Assay: Lipid decomposition (glycerol secretion) in in vitro obese model of differentiated 3T3-L1 adipocytes
Format: cell-based
Details: 24 hr
Procedure: As adipocyte precursor cells, 3T3-L1 cells (Dainippon Sumitomo Pharmaceuticals Co., Ltd.) were used. The 3T3-L1 cells were cultured in passage medium A (10% bovine serum-added DMEM supplemented with penicillin[…]streptomycin) in a 75 cm^2 flask. The 3T3-L1 cells were plated in a 24 well plate at 20000 cells/well. The next day, the medium was changed to passage medium B (10% fetal calf serum-added high glucose DMEM supplemented with penicillin-streptomycin) and, 48 hr later, the medium was changed to differentiation induction medium. The differentiation induction medium contained passage medium B as a base medium, and dexamethasone, isobutylmethylxanthine, insulin and pioglitazone at a final concentration of 0.5 μM, 500 μM, 8 μg/ml and 2 μM, respectively. Further, 48 hr later, the medium was changed to a differentiation promoting medium. The differentiation promoting medium contained passage medium B as a base medium, and insulin and pioglitazone at a final concentration of 8 μg/ml and 2 μM, respectively. 48 hr later, the medium was changed to passage medium B. Thereafter, the medium was changed to passage medium B every other day. 7 to 10 days later, differentiation of 3T3-L1 cells into mature adipocyte cells were confirmed with a phase contrast microscope, and the cells were subjected to the following test.
After removing passage medium B by an aspirator, the cells were washed with KRB-HEPES (128 mM NaCl, 10 mM NaH2PO4, 4.7 mM KCl, 1.25 mM CaCl2, 1.25 mM MgCl2, 50 mM HEPES, pH 7.4). The licorice hydrophobic extract (50 mg/ml) of Example 1 and α-lipoic acid (100 mM) as an antioxidant ingredient were each dissolved in DMSO. […] The glycerol concentration was measured using Glycerol Reagent A manufactured by Zen-Bio, and the glycerol amount per protein concentration of the cell was calculated and compared. […]
After removing passage medium B, the cells were washed with KRB-HEPES. […] The glycerol concentration was measured using Glycerol Reagent A manufactured by Zen-Bio, and the glycerol amount per protein concentration of the cell was calculated and compared. […]

## C[N+](C)(C)CC(O)CC(=O)[O-] (stereo not drawn) [carnitine]
Table 3 (Example 11), carnitine 80 μM
  glycerol secretion amount: 43.5 ± 1.9 μM/mg protein

## O=c1c(-c2ccc(O)cc2)coc2cc(O)cc(O)c12 [genistein]
Table 2 (Example 10), genistein 10 μM
  glycerol secretion amount: 111.1 ± 6.3 μM/mg protein

## O=C(O)CCCCC1CCSS1 (stereo not drawn) [α-lipoic acid]
Table 1 (Example 9), α-lipoic acid 30 μM
  glycerol secretion amount: 89.6 ± 4.8 μM/mg protein
